Key:
[1] = biological target: Menin protein (Homo sapiens, UniProt O00255, DEL460-519); assay: Menin/MLL fluorescence polarization (FP) assay; type: binding; settings: Menin 2 nM, cRho110-Ahx-MBM1/MBM2 peptide 1 nM
Protocol: Compounds were tested in a biochemical binding assay using Menin protein at 2 nM (N6his-tev-Menin_4i80, PB-20-1459) and the substrate cRho110-Ahx-MBM1/MBM2 peptide (UbiQ, UbiQ-Q20201030; cRh110-Ahx-[…]-QRVPALLLPPG-NH2) at 1 nM.
384 Low volume black plates (Corning #4514) were used. 5 μL/well compound or 3% DMSO was added at 10-fold serial dilutions in DMSO from 10 μM. 5 μL/well cRho110-Ahx-MBM1/MBM2 peptide or binding buffer (50 mM Tris pH 7.5, 50 mM NaCl, 1 mM TCEP, 0.01% BGG, 0.01% Brij-35) was added to all wells. 5 μL/well Menin protein or binding buffer (50 mM Tris pH 7.5, 50 mM NaCl, 1 mM TCEP, 0.01% BGG, 0.01% Brij-35) was added to all wells. Plates were read on an EnVision plate reader (Perkin Elmer) with excitation at 480 nm and emission at 535 nm P+S, and measured every 5 minutes for 180 minutes.
Data were analyzed in Genedata Screener®. IC50 values were determined by plotting % inhibition versus log compound concentration and using a one site dose response model. Raw data signals were normalized using 1% DMSO no Menin as 100% inhibitor control and 1% DMSO with Menin and no inhibitor as 0% inhibitor control.

[2] = biological target: Menin protein (Homo sapiens (Human), UniProt O00255); assay: Menin protein degradation in MV-4-11 SILAC cells (pulse SILAC, PRM); type: cell-based; settings: 300 nM
Protocol: An MV-4-11 cell line was passaged at least eight times in SILAC-IMDM (ThermoFisher, #88367), which lacks L-lysine and L-arginine, and supplemented with 10% (v/v) dialyzed FBS (ThermoFisher, #A3382001), [^13C6, ^15N2]-L-lysine, and [^13C6, ^15N4]-L-arginine (Sigma #608041 and #608033) (100 μg/mL each) to achieve “heavy cell” status as determined by LC-MS/MS. Whenever thawed, the “heavy-labelled” cells were passaged at least three times before use in experiments. “Light” medium was prepared by supplementing SILAC-IMDM with 10% (v/v) dialyzed FBS and unlabeled L-arginine and L-lysine (Sigma, #A6969, #L8662). SILAC-IMDM was either supplemented with 300 nM of Compound 56-2 (10 mM solution in DMSO) or the equivalent amounts of DMSO as control. Cells were transferred to “light” media, incubated at 37° C., 5% CO2, and collected at various time points (0 hrs, 1 hrs, 2 hrs, 4.25 hrs, 10.25 hrs, 20.75 hrs, 28.5 hrs, 47 hrs, 72 hrs) by two washes with ice cold PBS and pelleted by centrifugation.
Cell pellets (approximately 2×10^5 cells) were transferred to 96-well plate using cell lysis buffer (4% SDS, 50 mM HEPES pH 7.4, 5 mM TCEP, and 10 mM chloroacetamide) and heated to 95° C. for 10 minutes. […] The PRM data were analyzed with Skyline (University of Washington, Seattle, WA., Ref.) using high-selectivity data extraction. […]

[3] = biological target: hERG ion channel (Homo sapiens (Human), UniProt Q12809); assay: hERG assay 3, QPatchII 48X, 30 degrees Celsius; type: cell-based; settings: CHO cells
Protocol: Experiments were performed on the QPatchII 48X(Sophion Biosciences) high throughput patch clamp platform at 30 degrees Celsius using single holes QChips (Sophion Bioscience). Chinese hamster ovary K1 (CHO) cell lines over-expressing the hERG ion channel were used from live culture. All compounds were dispensed as solid stocks in glass vials. Compounds were solubilised to 10 or 50 mM DMSO stocks on the day of experiments, after which dilutions in DMSO we undertaken. Stamps of DMSO stocks were made into an MTP plate using glass vials, after which extracellular solution was backfilled creating testing concentrations with a highest concentration of 40 and 200 μM, respectively. The internal patch clamp solution was KF 60 mM, KCl 70 mM, HEPES 10 mM, EGTA 10 mM, and 5 mM Mg ATP (pH7.2).

Chain of hERG ion channel (Q12809 whole entry): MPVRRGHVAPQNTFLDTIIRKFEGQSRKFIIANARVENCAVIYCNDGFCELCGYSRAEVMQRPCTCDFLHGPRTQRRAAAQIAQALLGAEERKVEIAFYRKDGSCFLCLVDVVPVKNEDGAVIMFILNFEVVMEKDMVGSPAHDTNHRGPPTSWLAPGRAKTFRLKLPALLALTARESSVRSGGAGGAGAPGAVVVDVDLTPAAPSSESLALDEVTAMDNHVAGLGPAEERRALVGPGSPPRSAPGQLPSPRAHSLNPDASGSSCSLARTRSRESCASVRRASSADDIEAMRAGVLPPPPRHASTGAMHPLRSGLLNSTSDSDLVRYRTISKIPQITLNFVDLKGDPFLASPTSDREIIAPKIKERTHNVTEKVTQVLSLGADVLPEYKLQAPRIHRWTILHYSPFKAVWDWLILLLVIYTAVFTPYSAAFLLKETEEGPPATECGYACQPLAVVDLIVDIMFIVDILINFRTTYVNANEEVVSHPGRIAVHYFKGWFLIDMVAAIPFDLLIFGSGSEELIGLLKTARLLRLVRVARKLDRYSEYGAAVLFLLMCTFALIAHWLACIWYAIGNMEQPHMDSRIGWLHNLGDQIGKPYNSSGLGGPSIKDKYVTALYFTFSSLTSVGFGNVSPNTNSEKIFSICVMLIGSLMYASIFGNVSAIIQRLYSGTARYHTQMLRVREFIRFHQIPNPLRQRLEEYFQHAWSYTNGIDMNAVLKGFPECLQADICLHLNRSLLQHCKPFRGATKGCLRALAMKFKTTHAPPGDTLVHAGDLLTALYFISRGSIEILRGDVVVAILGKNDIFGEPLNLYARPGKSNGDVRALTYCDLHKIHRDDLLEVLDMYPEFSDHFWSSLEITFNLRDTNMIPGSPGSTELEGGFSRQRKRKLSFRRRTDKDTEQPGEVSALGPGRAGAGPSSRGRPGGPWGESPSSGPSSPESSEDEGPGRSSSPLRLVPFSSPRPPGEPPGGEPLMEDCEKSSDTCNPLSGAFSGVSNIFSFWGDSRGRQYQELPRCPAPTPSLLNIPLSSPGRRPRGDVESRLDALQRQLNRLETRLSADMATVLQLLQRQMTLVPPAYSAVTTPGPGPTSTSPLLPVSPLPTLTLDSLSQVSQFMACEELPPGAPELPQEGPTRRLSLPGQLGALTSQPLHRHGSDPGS
Chain of Menin protein (Homo sapiens, UniProt O00255, DEL460-519) (O00255 with tags, fused parts or gaps DEL460-519): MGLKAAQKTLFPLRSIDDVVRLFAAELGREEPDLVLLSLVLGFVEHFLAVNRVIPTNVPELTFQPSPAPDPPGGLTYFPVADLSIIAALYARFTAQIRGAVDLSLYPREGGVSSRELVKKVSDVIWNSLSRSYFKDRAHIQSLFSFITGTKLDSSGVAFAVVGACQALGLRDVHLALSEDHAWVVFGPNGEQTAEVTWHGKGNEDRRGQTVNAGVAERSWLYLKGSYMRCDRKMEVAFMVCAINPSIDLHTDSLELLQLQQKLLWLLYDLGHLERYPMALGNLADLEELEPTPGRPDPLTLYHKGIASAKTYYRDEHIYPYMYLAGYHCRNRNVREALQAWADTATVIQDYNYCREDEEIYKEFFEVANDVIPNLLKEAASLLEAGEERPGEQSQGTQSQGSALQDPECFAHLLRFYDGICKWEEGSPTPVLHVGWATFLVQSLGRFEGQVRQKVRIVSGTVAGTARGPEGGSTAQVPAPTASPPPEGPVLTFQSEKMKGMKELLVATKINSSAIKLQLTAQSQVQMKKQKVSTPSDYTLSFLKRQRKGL
Chain of Menin protein (Homo sapiens (Human), UniProt O00255) (O00255 whole entry): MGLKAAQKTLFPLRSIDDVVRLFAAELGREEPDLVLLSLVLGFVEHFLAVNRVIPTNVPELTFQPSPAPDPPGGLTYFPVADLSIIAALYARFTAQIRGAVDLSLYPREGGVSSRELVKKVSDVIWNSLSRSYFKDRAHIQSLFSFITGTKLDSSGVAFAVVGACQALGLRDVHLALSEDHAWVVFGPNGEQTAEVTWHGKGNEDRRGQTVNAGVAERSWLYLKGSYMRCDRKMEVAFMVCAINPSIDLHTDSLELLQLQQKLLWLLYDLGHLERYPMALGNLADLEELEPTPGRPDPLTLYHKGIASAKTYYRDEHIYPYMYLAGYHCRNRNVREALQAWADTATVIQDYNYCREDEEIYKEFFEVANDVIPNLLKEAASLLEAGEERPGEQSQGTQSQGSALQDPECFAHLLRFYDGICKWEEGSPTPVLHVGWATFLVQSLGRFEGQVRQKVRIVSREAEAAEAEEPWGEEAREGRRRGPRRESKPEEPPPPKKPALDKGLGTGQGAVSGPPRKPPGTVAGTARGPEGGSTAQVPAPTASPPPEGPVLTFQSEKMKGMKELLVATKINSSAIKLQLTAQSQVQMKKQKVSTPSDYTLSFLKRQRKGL

IC50 [1] | Compound | kdeg (rate of degradation of heavy Menin protein) [2] | IC50 [3]
13 nM | CCN(C(=O)c1cc(F)ccc1-n1c(C)c(C(=O)C2CCN(C(=O)[C@H]3NC[C@@H]4C[C@@H]43)CC2)c2ccncc21)C(C)C (single isomer, unassigned) [Example 48-2] | – | –
29 nM | CCN(C(=O)c1cc(F)ccc1-n1c(C)c(C(=O)C2CCN(C(=O)[C@@H]3CCC(C)(C)N3)CC2)c2ccncc21)C(C)C (single isomer, unassigned) [Example 50-2] | – | –
14 nM | Cc1c(C(=O)[C@@H]2CCN(C(=O)[C@H]3NC[C@@H]4C[C@@H]43)[C@@H](C)C2)c2ccncc2n1-c1ccc(F)cc1C(=O)N(CC(F)(F)F)C(C)C (single isomer, unassigned) [Example 53-3, 2-(3-((2R*,4S*)-1-((1S,2S,5R)-3-Azabicyclo[3.1.0]hexane-2-carbonyl)-2-methylpiperidine-4-carbonyl)-2-methyl-1H-pyrrolo[2,3-c]pyridin-1-yl)-5-fluoro-N-isopropyl-N-(2,2,2-trifluoroethyl)benzamide] | – | –
22 nM | CC(C)N(C(=O)c1cc(F)ccc1-n1cc(C(=O)C2CCN(C(=O)[C@H]3NC4CCC3CC4)CC2)c2ccncc21)C(C)C [Example 20, (S)-2-(3-(1-(2-Azabicyclo[2.2.2]octane-3-carbonyl)piperidine-4-carbonyl)-1H-pyrrolo[2,3-c]pyridin-1-yl)-5-fluoro-N,N-diisopropylbenzamide] | – | –
17 nM | CCN(C(=O)c1cc(F)ccc1-n1cc(C(=O)C2CCN(C(=O)[C@H]3NC[C@@H]4C[C@@H]43)CC2)c2ccncc21)C(C)C [Example 28, 2-(3-(1-((1S,2S,5R)-3-Azabicyclo[3.1.0]hexane-2-carbonyl)piperidine-4-carbonyl)-1H-pyrrolo[2,3-c]pyridin-1-yl)-N-ethyl-5-fluoro-N-isopropylbenzamide] | – | –

Second part, the molecule before the results:

Compound | IC50 [1] | kdeg (rate of degradation of heavy Menin protein) [2] | IC50 [3]
Cc1c(C(=O)C2CCN(C(=O)[C@@H]3CCC(C)(C)N3)CC2)c2ccncc2n1-c1ccc(F)cc1C(=O)N(C(C)C)C(C)C (single isomer, unassigned) [Compound 56-2] | 43 nM | 0.14 h⁻¹ | 42.9 µM
CCN(C(=O)c1cc(F)ccc1-n1c(C)c(C(=O)C2CCN(C(=O)[C@@H]3CCC4(CC4)N3)CC2)c2ccncc21)C(C)C (single isomer, unassigned) [Example 49-2] | 29 nM | – | –
Cc1c(C(=O)C2CCN(C(=O)[C@H]3NC[C@@H]4C[C@@H]43)CC2)c2ccncc2n1-c1ccc(F)cc1C(=O)N(CC(F)(F)F)C(C)C (single isomer, unassigned) [Example 51-2] | 22 nM | – | –
Cc1c(C(=O)C2CCN(C(=O)[C@H]3NC[C@@H]4C[C@@H]43)CC2)c2ccncc2n1-c1ccc(F)cc1C(=O)N(C(C)C)C(C)C (single isomer, unassigned) [Example 55-2] | 9 nM | – | –
Cc1c(C(=O)C2CCN(C(=O)[C@@H]3CCC4(CC4)N3)CC2)c2ccncc2n1-c1ccc(F)cc1C(=O)N1[C@H](C)COC[C@H]1C (single isomer, unassigned) [Example 58-2] | 30 nM | – | 111 µM
CC(C)c1ncccc1-c1cc(F)ccc1-n1cc(C(=O)C2CN(C(=O)[C@H]3N[C@@H]4CC[C@H]3C4)C2)c2ccncc21 [Example 10, (1-((1R,3S,4S)-2-Azabicyclo[2.2.1]heptane-3-carbonyl)azetidin-3-yl)(1-(4-fluoro-2-(2-isopropylpyridin-3-yl)phenyl)-1H-pyrrolo[2,3-c]pyridin-3-yl)methanone] | – | – | 33.8 µM
C[C@@H]1COC[C@@H](C)N1C(=O)c1cc(F)ccc1-n1cc(C(=O)C2CCN(C(=O)[C@H]3N[C@@H]4CC[C@H]3C4)CC2)c2ccncc21 [Example 34, (1-((1R,3S,4S)-2-Azabicyclo[2.2.1]heptane-3-carbonyl)piperidin-4-yl)(1-(2-((3R,5R)-3,5-dimethylmorpholine-4-carbonyl)-4-fluorophenyl)-1H-pyrrolo[2,3-c]pyridin-3-yl)methanone] | 29 nM | – | –
